# Experiments:
# Assay in all cases: Test B pre-/postemergence
# Format in all cases: in vivo
# Design in all cases: key: 0 is no effect; 10 is complete control
# [1] = test system: sugar beet (Beta vulgaris)
# Procedure, shortened: (§1)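 Compounds in a surfactant-containing, non-phytotoxic solvent blend are applied to freshly planted seed (preemergence) and, concurrently, to seedlings of 2 to 18 cm at 1–4 leaves (postemergence). Plants stay in the greenhouse twelve to sixteen days and are then scored visually from 0 (no effect) to 10 (complete control).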
# wild oat (Avena fatua) = test system: wild oat (Avena fatua)
# Procedure, shortened: as §1
# [2] = test system: pigweed (Amaranthus retroflexus)
# Procedure, shortened: as §1
# [3] = test system: momingglory (Ipomoea hederacea)
# Procedure, shortened: as §1
# [4] = test system: velvetleaf (Abutilon theophrasti)
# Procedure, shortened: as §1
# [5] = test system: cocklebur (Xanthium strumarium)
# Procedure, shortened: as §1
# [6] = test system: crabgrass (Digitaria sanguinalis)
# Procedure, shortened: as §1
# soybean (Glycine max) = test system: soybean (Glycine max)
# Procedure, shortened: as §1
# [7] = test system: purple nutsedge (Cyperus rotundus)
# Procedure, shortened: as §1
# [8] = test system: bedstraw (Galium aparine)
# Procedure, shortened: as §1
# [9] = test system: wheat (Triticum aestivum)
# Procedure, shortened: as §1
# rape (Brassica napus) = test system: rape (Brassica napus)
# Procedure, shortened: as §1
# corn (Zea mays) = test system: corn (Zea mays)
# Procedure, shortened: as §1
# [10] = test system: giant foxtail (Setaria faberii)
# Procedure, shortened: as §1
# [11] = Preemergence, Rate 62 g/ha, scale of 0 to 10
smiles,measurement,setting,value
Cc1cnc(-n2cnc(C(F)(F)F)n2)nc1C(=O)c1cccc(OC(F)(F)F)c1 [Compound 64],"Plant response rating, Sugarbeets",[1]; [11],9
same,Sugarbeets plant response rating,"[1]; Rate 62 g/ha, Postemergence",9
same,Sugarbeets plant response rating,"[1]; Rate 125 g/ha, Postemergence",10
same,"Plant response rating, Sugarbeets","[1]; Rate 125 g/ha, Preemergence",10
same,"Plant response rating, Sugarbeets","[1]; Rate 250 g/ha, Postemergence",10
same,"Plant response rating, Sugarbeets","[1]; Rate 250 g/ha, Preemergence",10
same,"Plant response rating, Sugarbeets","[1]; Rate 500 g/ha, Postemergence",10
same,"Plant response rating, Sugarbeets","[1]; Rate 500 g/ha, Preemergence",10
same,"Plant response rating, Wild oats",wild oat (Avena fatua); [11],3
same,Wild oats plant response rating,"wild oat (Avena fatua); Rate 62 g/ha, Postemergence",3
same,Wild oats plant response rating,"wild oat (Avena fatua); Rate 125 g/ha, Postemergence",4
same,"Plant response rating, Wild oats","wild oat (Avena fatua); Rate 125 g/ha, Preemergence",4
same,"Plant response rating, Wild oats","wild oat (Avena fatua); Rate 250 g/ha, Postemergence",5
same,"Plant response rating, Wild oats","wild oat (Avena fatua); Rate 250 g/ha, Preemergence",5
same,"Plant response rating, Wild oats","wild oat (Avena fatua); Rate 500 g/ha, Postemergence",7
same,"Plant response rating, Wild oats","wild oat (Avena fatua); Rate 500 g/ha, Preemergence",9
same,"Plant response rating, Redroot pigweed",[2]; [11],9
same,Redroot pigweed plant response rating,"[2]; Rate 62 g/ha, Postemergence",8
same,Redroot pigweed plant response rating,"[2]; Rate 125 g/ha, Postemergence",9
same,"Plant response rating, Redroot pigweed","[2]; Rate 125 g/ha, Preemergence",9
same,"Plant response rating, Redroot pigweed","[2]; Rate 250 g/ha, Postemergence",10
same,"Plant response rating, Redroot pigweed","[2]; Rate 250 g/ha, Preemergence",10
same,"Plant response rating, Redroot pigweed","[2]; Rate 500 g/ha, Postemergence",10
same,"Plant response rating, Redroot pigweed","[2]; Rate 500 g/ha, Preemergence",10
same,"Plant response rating, Morningglory",[3]; [11],4
same,Morningglory plant response rating,"[3]; Rate 62 g/ha, Postemergence",2
same,Morningglory plant response rating,"[3]; Rate 125 g/ha, Postemergence",8
same,"Plant response rating, Morningglory","[3]; Rate 125 g/ha, Preemergence",10
same,"Plant response rating, Morningglory","[3]; Rate 250 g/ha, Postemergence",8
same,"Plant response rating, Morningglory","[3]; Rate 250 g/ha, Preemergence",10
same,"Plant response rating, Morningglory","[3]; Rate 500 g/ha, Postemergence",8
same,"Plant response rating, Morningglory","[3]; Rate 500 g/ha, Preemergence",10
same,"Plant response rating, Velvetleaf",[4]; [11],4
same,Velvetleaf plant response rating,"[4]; Rate 62 g/ha, Postemergence",2
same,Velvetleaf plant response rating,"[4]; Rate 125 g/ha, Postemergence",7
same,"Plant response rating, Velvetleaf","[4]; Rate 125 g/ha, Preemergence",6
same,"Plant response rating, Velvetleaf","[4]; Rate 250 g/ha, Postemergence",8
same,"Plant response rating, Velvetleaf","[4]; Rate 250 g/ha, Preemergence",6
same,"Plant response rating, Velvetleaf","[4]; Rate 500 g/ha, Postemergence",9
same,"Plant response rating, Velvetleaf","[4]; Rate 500 g/ha, Preemergence",10
same,"Plant response rating, Cocklebur",[5]; [11],1
same,Cocklebur plant response rating,"[5]; Rate 62 g/ha, Postemergence",6
same,Cocklebur plant response rating,"[5]; Rate 125 g/ha, Postemergence",7
same,"Plant response rating, Cocklebur","[5]; Rate 125 g/ha, Preemergence",1
same,"Plant response rating, Cocklebur","[5]; Rate 250 g/ha, Postemergence",7
same,"Plant response rating, Cocklebur","[5]; Rate 500 g/ha, Postemergence",9
same,"Plant response rating, Cocklebur","[5]; Rate 500 g/ha, Preemergence",7
same,"Plant response rating, Crabgrass",[6]; [11],9
same,Crabgrass plant response rating,"[6]; Rate 62 g/ha, Postemergence",4
same,Crabgrass plant response rating,"[6]; Rate 125 g/ha, Postemergence",5
same,"Plant response rating, Crabgrass","[6]; Rate 125 g/ha, Preemergence",10
same,"Plant response rating, Crabgrass","[6]; Rate 250 g/ha, Postemergence",9
same,"Plant response rating, Crabgrass","[6]; Rate 250 g/ha, Preemergence",10
same,"Plant response rating, Crabgrass","[6]; Rate 500 g/ha, Postemergence",9
same,"Plant response rating, Crabgrass","[6]; Rate 500 g/ha, Preemergence",10
same,"Plant response rating, Soybean",soybean (Glycine max); [11],0
same,Soybean plant response rating,"soybean (Glycine max); Rate 62 g/ha, Postemergence",2
same,Soybean plant response rating,"soybean (Glycine max); Rate 125 g/ha, Postemergence",3
same,"Plant response rating, Soybean","soybean (Glycine max); Rate 125 g/ha, Preemergence",1
same,"Plant response rating, Soybean","soybean (Glycine max); Rate 250 g/ha, Postemergence",5
same,"Plant response rating, Soybean","soybean (Glycine max); Rate 250 g/ha, Preemergence",1
same,"Plant response rating, Soybean","soybean (Glycine max); Rate 500 g/ha, Postemergence",6
same,"Plant response rating, Soybean","soybean (Glycine max); Rate 500 g/ha, Preemergence",1
same,"Plant response rating, Nutsedge",[7]; [11],0
same,Nutsedge plant response rating,"[7]; Rate 62 g/ha, Postemergence",0
same,Nutsedge plant response rating,"[7]; Rate 125 g/ha, Postemergence",0
same,"Plant response rating, Nutsedge","[7]; Rate 250 g/ha, Postemergence",0
same,"Plant response rating, Nutsedge","[7]; Rate 500 g/ha, Postemergence",2
same,"Plant response rating, Nutsedge","[7]; Rate 500 g/ha, Preemergence",2
same,"Plant response rating, Bedstraw",[8]; [11],3
same,Bedstraw plant response rating,"[8]; Rate 62 g/ha, Postemergence",3
same,Bedstraw plant response rating,"[8]; Rate 125 g/ha, Postemergence",4
same,"Plant response rating, Bedstraw","[8]; Rate 125 g/ha, Preemergence",8
same,"Plant response rating, Bedstraw","[8]; Rate 250 g/ha, Postemergence",7
same,"Plant response rating, Bedstraw","[8]; Rate 250 g/ha, Preemergence",8
same,"Plant response rating, Bedstraw","[8]; Rate 500 g/ha, Postemergence",9
same,"Plant response rating, Bedstraw","[8]; Rate 500 g/ha, Preemergence",9
same,"Plant response rating, Wheat",[9]; [11],0
same,Wheat plant response rating,"[9]; Rate 62 g/ha, Postemergence",2
same,Wheat plant response rating,"[9]; Rate 125 g/ha, Postemergence",3
same,"Plant response rating, Wheat","[9]; Rate 125 g/ha, Preemergence",0
same,"Plant response rating, Wheat","[9]; Rate 250 g/ha, Postemergence",3
same,"Plant response rating, Wheat","[9]; Rate 250 g/ha, Preemergence",1
same,"Plant response rating, Wheat","[9]; Rate 500 g/ha, Postemergence",5
same,"Plant response rating, Wheat","[9]; Rate 500 g/ha, Preemergence",2
same,"Plant response rating, Rape",rape (Brassica napus); [11],3
same,Rape plant response rating,"rape (Brassica napus); Rate 62 g/ha, Postemergence",3
same,Rape plant response rating,"rape (Brassica napus); Rate 125 g/ha, Postemergence",4
same,"Plant response rating, Rape","rape (Brassica napus); Rate 125 g/ha, Preemergence",4
same,"Plant response rating, Rape","rape (Brassica napus); Rate 250 g/ha, Postemergence",4
same,"Plant response rating, Rape","rape (Brassica napus); Rate 250 g/ha, Preemergence",8
same,"Plant response rating, Rape","rape (Brassica napus); Rate 500 g/ha, Postemergence",4
same,"Plant response rating, Rape","rape (Brassica napus); Rate 500 g/ha, Preemergence",10
same,"Plant response rating, Corn",corn (Zea mays); [11],3
same,Corn plant response rating,"corn (Zea mays); Rate 62 g/ha, Postemergence",1
same,Corn plant response rating,"corn (Zea mays); Rate 125 g/ha, Postemergence",3
same,"Plant response rating, Corn","corn (Zea mays); Rate 125 g/ha, Preemergence",3
same,"Plant response rating, Corn","corn (Zea mays); Rate 250 g/ha, Postemergence",4
same,"Plant response rating, Corn","corn (Zea mays); Rate 250 g/ha, Preemergence",4
same,"Plant response rating, Corn","corn (Zea mays); Rate 500 g/ha, Postemergence",5
same,"Plant response rating, Corn","corn (Zea mays); Rate 500 g/ha, Preemergence",4
same,"Plant response rating, Giant foxtail",[10]; [11],1
same,Giant foxtail plant response rating,"[10]; Rate 62 g/ha, Postemergence",1
same,Giant foxtail plant response rating,"[10]; Rate 125 g/ha, Postemergence",3
same,"Plant response rating, Giant foxtail","[10]; Rate 125 g/ha, Preemergence",2
same,"Plant response rating, Giant foxtail","[10]; Rate 250 g/ha, Postemergence",4
same,"Plant response rating, Giant foxtail","[10]; Rate 250 g/ha, Preemergence",5
same,"Plant response rating, Giant foxtail","[10]; Rate 500 g/ha, Postemergence",5
same,"Plant response rating, Giant foxtail","[10]; Rate 500 g/ha, Preemergence",6
